US7985755B2, “2,4-diaminoquinazolines for spinal muscular atrophy” (Families of Spinal Muscular Atrophy, priority 2006, dated 2011)
Counter-ions that a name gives are not always drawn.

system: SMN2 promoter; experiment: SMN2 promoter assay in NSC-34 cells (β-lactamase reporter); type: cell-based, mouse; settings: Mus musculus, Table 1, SMN2 promoter driving β-lactamase, 12 point dose curve, read-out: Promoter Assay EC50
Excerpt: All compounds were screened using an in vitro based SMN2 promoter assay. We used NSC-34 cells, a hybrid cell line between mouse spinal cord cells and mouse neuroblastoma cells. NSC-34 cells harbor an expression plasmid containing a 3.4 kb promoter fragment of the SMN2 gene driving β-lactamase expression.
[…] […] CCF2-AM diffuses across the plasma membrane and is converted into an active β-lactamase substrate by cytoplasmic esterase. […] The fold induction is proportional to the extent of β-lactamase produced and in turn proportional to SMN2 promoter activation for a given compound relative to vehicle (DMSO) control. […] These values are used to rank activities of the compounds and derive structure activity relationship.

EC50 [µM] | SMILES
1 to 5 | Nc1nc(N)c2c(OCC3CCN(Cc4cccc(C(=O)O)c4)CC3)cccc2n1 [Example-222, 3-[4-(2,4-Diamino-quinazolin-5-yloxymethyl)-piperidin-1-ylmethyl]-benzoic acid]
1 to 5 | Nc1nc(N)c2c(OCC3CCN(Cc4ccc(C(=O)O)cc4)CC3)cccc2n1 [Example-223, 4-[4-(2,4-Diamino-quinazolin-5-yloxymethyl)-piperidin-1-ylmethyl]-benzoic Acid]

same assay, conditions: Mus musculus, Table 3, SMN2 promoter driving β-lactamase, read-out: Promoter Assay EC50

EC50 [µM] | SMILES
< 1 | Nc1nc(N)c2c(OCC3CCN(c4ccccc4Cl)CC3)cccc2n1 [Example-163, 5-[1-(2-Chlorophenyl)piperidin-4-ylmethoxy]quinazoline-2,4-diamine]

same assay, conditions: Mus musculus, Table 4, SMN2 promoter driving β-lactamase, read-out: Promoter Assay EC50 for 2391.003C(P)

EC50 [µM] | SMILES
1 to 5 | Nc1nc(N)c2c(N3CCN(Cc4ccccc4)CC3)cccc2n1 [Example-169, 5-(4-Benzyl-piperazin-1-yl)-quinazoline-2,4-diamine]
< 1 | Nc1nc(N)c2c(N3CCN(Cc4ccc(Cl)cc4)CC3)cccc2n1 [Example-173, 5-[4-(4-Chloro-benzyl)-piperazin-1-yl]-quinazoline-2,4-diamine]
1 to 5 | Nc1nc(N)c2c(N3CCN(Cc4ccccc4F)CC3)cccc2n1 [Example-176, 5-[4-(2-Fluoro-benzyl)-piperazin-1-yl]-quinazoline-2,4-diamine]
< 1 | Nc1nc(N)c2c(N3CCN(Cc4ccc(F)cc4F)CC3)cccc2n1 [Example-177, 5-[4-(2,4-Difluoro-benzyl)-piperazin-1-yl]-quinazoline-2,4-diamine]
< 1 | Nc1nc(N)c2c(N3CCN(Cc4ccc5c(c4)OCO5)CC3)cccc2n1 [Example-182, 5-(4-Benzo[1,3]dioxol-5-ylmethyl-piperazin-1-yl)-quinazoline-2,4-diamine]
< 1 | Cc1cccc(CN2CCN(c3cccc4nc(N)nc(N)c34)CC2)c1F [Example-183, 5-[4-(2-Fluoro-3-methyl-benzyl)-piperazin-1-yl]-quinazoline-2,4-diamine]
1 to 5 | Nc1nc(N)c2c(N3CCN(Cc4ccc5ccccc5c4)CC3)cccc2n1 [Example-204, 5-(4-Naphthalen-2-ylmethyl-piperazin-1-yl)-quinazoline-2,4-diamine hydrochloride]

SMILES | EC50 [µM]
Nc1nc(N)c2c(N3CCNCC3)cccc2n1 [Example-220, 5-piperazin-1-ylquinazoline-2,4-diamine] | < 1

same assay, conditions: Mus musculus, Table 6, SMN2 promoter driving β-lactamase, read-out: Promoter Assay EC50

EC50 [µM] | SMILES
< 1 | CC(C)(Oc1cccc2nc(N)nc(N)c12)C1CCN(Cc2c(Cl)cccc2Cl)CC1 [Example-224, 5-{1-[1-(2,6-Dichloro-benzyl)-piperidin-4-yl]-1-methyl-ethoxy}-quinazoline-2,4-diamine]
< 1 | CC(C)(Oc1cccc2nc(N)nc(N)c12)C1CCN(Cc2c(F)cccc2Cl)CC1 [Example-225, 5-{1-[1-(2-Chloro-6-fluoro-benzyl)-piperidin-4-yl]-1-methyl-ethoxy}-quinazoline-2,4-diamine]
< 1 | CC1CC(COc2cccc3nc(N)nc(N)c23)CC(C)N1Cc1ccccc1F (centres unmarked) [Example-226, 5-[1-(2-Fluoro-benzyl)-2,6-dimethyl-piperidin-4-ylmethoxy]-quinazoline-2,4-diamine]
< 1 | CC1CC(COc2cccc3nc(N)nc(N)c23)CC(C)N1Cc1c(F)cccc1Cl (centres unmarked) [Example-227, 5-[1-(2-Chloro-6-fluoro-benzyl)-2,6-dimethyl-piperidin-4-ylmethoxy]-quinazoline-2,4-diamine]

same assay, conditions: Table 1, SMN2 promoter driving β-lactamase, 12 point dose curve, read-out: Promoter Assay EC50

EC50 [µM] | SMILES
< 1 | CC(=O)Nc1nc(CN2CCC(COc3cccc4nc(N)nc(N)c34)CC2)cs1 [Example-094]
< 1 | Nc1nc(N)c2c(OCC3CCN(CC4COc5ccccc5O4)CC3)cccc2n1 (centres unmarked) [Example-096]
< 1 | Nc1nc(N)c2c(OCC3CCN(Cc4ccc(OC(F)(F)F)cc4)CC3)cccc2n1 [Example-102]
< 1 | Nc1nc(N)c2c(OCC3CCN(Cc4cccc(OC(F)(F)F)c4)CC3)cccc2n1 [Example-103]
< 1 | Nc1nc(N)c2c(OCC3CCN(Cc4ccc(Cl)cc4Cl)CC3)cccc2n1 [Example-104]
< 1 | Nc1nc(N)c2c(OCC3CCN(C(=O)c4ccc5c(c4)OCO5)CC3)cccc2n1 [Example-105]
< 1 | Nc1nc(N)c2c(OCC3CCN(C(=O)c4c(F)cccc4F)CC3)cccc2n1 [Example-107]
< 1 | Nc1nc(N)c2c(OCC3CCN(C(=O)c4c(Cl)cccc4Cl)CC3)cccc2n1 [Example-108]
< 1 | Nc1nc(N)c2c(OCC3CCN(C(=O)c4ccc(Cl)c(Cl)c4)CC3)cccc2n1 [Example-109]
< 1 | Nc1nc(N)c2c(OCC3CCN(C(=O)c4cccc(C(F)(F)F)c4F)CC3)cccc2n1 [Example-110]
< 1 | Nc1nc(N)c2c(OCC3CCN(S(=O)(=O)c4ccc(F)cc4)CC3)cccc2n1 [Example-111]
< 1 | COc1cccc(CN2CCC(COc3cccc4nc(N)nc(N)c34)CC2)c1 [Example-114]
< 1 | Nc1nc(N)c2c(OCC3CCN(Cc4cc(Cl)cc(Cl)c4)CC3)cccc2n1 [Example-116]
< 1 | Nc1nc(N)c2c(OCC3CCN(Cc4ccccn4)CC3)cccc2n1 [Example-118]
< 1 | Nc1nc(N)c2c(OCC3CCN(Cc4ccncc4)CC3)cccc2n1 [Example-119]
< 1 | COc1ccc(CN2CCC(COc3cccc4nc(N)nc(N)c34)CC2)cc1F [Example-122]
< 1 | Nc1nc(N)c2c(OCC3CCN(Cc4ccc(C(F)(F)F)cc4)CC3)cccc2n1 [Example-123]
< 1 | COc1ccc(CN2CCC(COc3cccc4nc(N)nc(N)c34)CC2)cc1 [Example-124]
< 1 | CC(C)(C)c1ccc(CN2CCC(COc3cccc4nc(N)nc(N)c34)CC2)cc1 [Example-129]
< 1 | Nc1nc(N)c2c(OCC3CCN(Cc4cccc(C(F)(F)F)c4)CC3)cccc2n1 [Example-130]
< 1 | Nc1nc(N)c2c(OCC3CCN(Cc4ccccc4C(F)(F)F)CC3)cccc2n1 [Example-131]
< 1 | Nc1nc(N)c2c(OCC3CCN(Cc4cccc(F)c4)CC3)cccc2n1 [Example-132]
< 1 | COc1cc(CN2CCC(COc3cccc4nc(N)nc(N)c34)CC2)cc(OC)c1 [Example-133]
< 1 | Nc1nc(N)c2c(OCC3CCN(Cc4cccs4)CC3)cccc2n1 [Example-135]
< 1 | Nc1nc(N)c2c(OCC3CCN(Cc4cc(F)cc(F)c4)CC3)cccc2n1 [Example-137]
< 1 | Nc1nc(N)c2c(OCC3CCN(Cc4ccsc4)CC3)cccc2n1 [Example-145]
< 1 | Cc1ccc(C)c(CN2CCC(COc3cccc4nc(N)nc(N)c34)CC2)c1 [Example-146]
< 1 | Nc1nc(N)c2c(OCC3CCN(Cc4cc(F)c(F)c(F)c4)CC3)cccc2n1 [Example-148]
< 1 | Nc1nc(N)c2c(OCC3CCN(Cc4ccc(F)cc4)CC3)cccc2n1 [Example-149]
1 to 5 | Cn1ccnc1CN1CCC(COc2cccc3nc(N)nc(N)c23)CC1 [Example-152]

same assay, conditions: Table 3, SMN2 promoter driving β-lactamase, read-out: Promoter Assay EC50

EC50 [µM] | SMILES
< 1 | COC(=O)c1cccc(CN2CCC(COc3cccc4nc(N)nc(N)c34)CC2)c1 [Example-156]
< 1 | COC(=O)c1ccc(CN2CCC(COc3cccc4nc(N)nc(N)c34)CC2)cc1 [Example-157]
